Results as given in the NIST ThermoML archive (doi:10.1021/je060271a).
Where “and” joins values, the source holds several entries; their conditions need not be identical. Equal values may be shown once. Numbers after ± are expanded uncertainties.

Settings: 303.15 K, Liquid, Vibrating tube method

CCCCCC(=O)OCC(COC(=O)CCCCC)(COC(=O)CCCCC)COC(=O)CCCCC [pentaerythritol tetrahexanoate]
Settings	mass density
228.5 kPa	988.5 ± 1.2 kg/m3
228.8 kPa	988.5 ± 1.2 kg/m3 and 988.4 ± 1.2 kg/m3
229 kPa	988.6 ± 1.2 kg/m3
229.5 kPa	988.6 ± 1.2 kg/m3
229.7 kPa	988.5 ± 1.2 kg/m3
230 kPa	988.5 ± 1.2 kg/m3
230.2 kPa	988.5 ± 1.2 kg/m3
230.4 kPa	988.5 ± 1.2 kg/m3
230.8 kPa	988.5 ± 1.2 kg/m3
230.9 kPa	988.5 ± 1.2 kg/m3
231.1 kPa	988.3 ± 1.2 kg/m3
231.4 kPa	988.5 ± 1.2 kg/m3
231.8 kPa	988.4 ± 1.2 kg/m3
233.2 kPa	988.5 ± 1.2 kg/m3
233.5 kPa	988.4 ± 1.2 kg/m3 and 988.5 ± 1.2 kg/m3
242.4 kPa	988.5 ± 1.2 kg/m3
244 kPa	988.5 ± 1.2 kg/m3
244.1 kPa	988.6 ± 1.2 kg/m3
244.5 kPa	988.5 ± 1.2 kg/m3
247.3 kPa	988.5 ± 1.2 kg/m3
247.4 kPa	988.4 ± 1.2 kg/m3
247.8 kPa	988.5 ± 1.2 kg/m3
248.1 kPa	988.4 ± 1.2 kg/m3 and 988.6 ± 1.2 kg/m3
248.3 kPa	988.5 ± 1.2 kg/m3
249.7 kPa	988.5 ± 1.2 kg/m3
250.2 kPa	988.5 ± 1.2 kg/m3
250.4 kPa	988.4 ± 1.2 kg/m3
250.6 kPa	988.5 ± 1.2 kg/m3
250.7 kPa	988.6 ± 1.2 kg/m3
262 kPa	988.6 ± 1.2 kg/m3
283.9 kPa	988.4 ± 1.2 kg/m3
284.4 kPa	988.6 ± 1.2 kg/m3
284.8 kPa	988.6 ± 1.2 kg/m3 and 988.5 ± 1.2 kg/m3
287.9 kPa	988.5 ± 1.2 kg/m3
288.2 kPa	988.6 ± 1.2 kg/m3
288.7 kPa	988.6 ± 1.2 kg/m3
289.1 kPa	988.6 ± 1.2 kg/m3
289.6 kPa	988.6 ± 1.2 kg/m3 and 988.5 ± 1.2 kg/m3
293.3 kPa	988.6 ± 1.2 kg/m3
294 kPa	988.7 ± 1.2 kg/m3 and 988.6 ± 1.2 kg/m3
294.3 kPa	988.6 ± 1.2 kg/m3
294.8 kPa	988.5 ± 1.2 kg/m3
295 kPa	988.5 ± 1.2 kg/m3
295.2 kPa	988.4 ± 1.2 kg/m3
295.9 kPa	988.6 ± 1.2 kg/m3 and 988.5 ± 1.2 kg/m3
296.4 kPa	988.6 ± 1.2 kg/m3 and 988.5 ± 1.2 kg/m3
296.9 kPa	988.6 ± 1.2 kg/m3
297.3 kPa	988.4 ± 1.2 kg/m3
297.6 kPa	988.5 ± 1.2 kg/m3
305.4 kPa	988.5 ± 1.2 kg/m3
305.8 kPa	988.6 ± 1.2 kg/m3
305.9 kPa	988.6 ± 1.2 kg/m3
312.9 kPa	988.4 ± 1.2 kg/m3
313.2 kPa	988.6 ± 1.2 kg/m3
314.1 kPa	988.6 ± 1.2 kg/m3
314.5 kPa	988.5 ± 1.2 kg/m3
314.8 kPa	988.5 ± 1.2 kg/m3
315.2 kPa	988.5 ± 1.2 kg/m3
315.8 kPa	988.6 ± 1.2 kg/m3
324.2 kPa	988.6 ± 1.2 kg/m3
324.7 kPa	988.5 ± 1.2 kg/m3
329.4 kPa	988.6 ± 1.2 kg/m3
329.9 kPa	988.6 ± 1.2 kg/m3
330.4 kPa	988.7 ± 1.2 kg/m3
330.8 kPa	988.6 ± 1.2 kg/m3
331.1 kPa	988.6 ± 1.2 kg/m3
331.5 kPa	988.5 ± 1.2 kg/m3
331.6 kPa	988.6 ± 1.2 kg/m3
332 kPa	988.6 ± 1.2 kg/m3
332.7 kPa	988.6 ± 1.2 kg/m3 and 988.7 ± 1.2 kg/m3
334.1 kPa	988.7 ± 1.2 kg/m3
334.4 kPa	988.5 ± 1.2 kg/m3
334.6 kPa	988.5 ± 1.2 kg/m3
335.1 kPa	988.6 ± 1.2 kg/m3
335.6 kPa	988.6 ± 1.2 kg/m3
335.7 kPa	988.6 ± 1.2 kg/m3
336.2 kPa	988.6 ± 1.2 kg/m3
336.5 kPa	988.6 ± 1.2 kg/m3
337 kPa	988.6 ± 1.2 kg/m3
337.6 kPa	988.6 ± 1.2 kg/m3
337.9 kPa	988.6 ± 1.2 kg/m3
338.1 kPa	988.6 ± 1.2 kg/m3
338.3 kPa	988.5 ± 1.2 kg/m3
339 kPa	988.5 ± 1.2 kg/m3
340 kPa	988.6 ± 1.2 kg/m3
341.5 kPa	988.5 ± 1.2 kg/m3
342.1 kPa	988.6 ± 1.2 kg/m3
342.8 kPa	988.7 ± 1.2 kg/m3
343.1 kPa	988.5 ± 1.2 kg/m3
343.3 kPa	988.6 ± 1.2 kg/m3
343.8 kPa	988.5 ± 1.2 kg/m3
389.7 kPa	988.6 ± 1.2 kg/m3
391.9 kPa	988.5 ± 1.2 kg/m3
393.8 kPa	988.6 ± 1.2 kg/m3
396.4 kPa	988.7 ± 1.2 kg/m3
398.9 kPa	988.6 ± 1.2 kg/m3
401 kPa	988.6 ± 1.2 kg/m3
403.1 kPa	988.6 ± 1.2 kg/m3
405.6 kPa	988.6 ± 1.2 kg/m3
407.9 kPa	988.5 ± 1.2 kg/m3
410.3 kPa	988.7 ± 1.2 kg/m3
413.3 kPa	988.6 ± 1.2 kg/m3
415.4 kPa	988.6 ± 1.2 kg/m3
418.3 kPa	988.7 ± 1.2 kg/m3
420.6 kPa	988.6 ± 1.2 kg/m3
423.2 kPa	988.6 ± 1.2 kg/m3
426.5 kPa	988.7 ± 1.2 kg/m3
428.6 kPa	988.7 ± 1.2 kg/m3
431 kPa	988.6 ± 1.2 kg/m3
434 kPa	988.6 ± 1.2 kg/m3
436.4 kPa	988.7 ± 1.2 kg/m3
439.4 kPa	988.6 ± 1.2 kg/m3
442.5 kPa	988.7 ± 1.2 kg/m3
445.1 kPa	988.7 ± 1.2 kg/m3
448.1 kPa	988.6 ± 1.2 kg/m3
451.4 kPa	988.6 ± 1.2 kg/m3
579.1 kPa	988.9 ± 1.2 kg/m3
583.8 kPa	988.9 ± 1.2 kg/m3
588.3 kPa	988.7 ± 1.2 kg/m3
593.5 kPa	988.7 ± 1.2 kg/m3
598.6 kPa	988.6 ± 1.2 kg/m3
604.3 kPa	988.7 ± 1.2 kg/m3
609.3 kPa	988.6 ± 1.2 kg/m3
614.4 kPa	988.7 ± 1.2 kg/m3
620.8 kPa	988.8 ± 1.2 kg/m3
625.5 kPa	988.7 ± 1.2 kg/m3
631 kPa	988.8 ± 1.2 kg/m3
635.9 kPa	988.8 ± 1.2 kg/m3
642.5 kPa	988.8 ± 1.2 kg/m3
648.3 kPa	988.8 ± 1.2 kg/m3
653.8 kPa	988.8 ± 1.2 kg/m3
660.6 kPa	988.8 ± 1.2 kg/m3
666.7 kPa	988.8 ± 1.2 kg/m3
672.6 kPa	988.8 ± 1.2 kg/m3
679.9 kPa	988.7 ± 1.2 kg/m3
686 kPa	988.7 ± 1.2 kg/m3
838 kPa	988.9 ± 1.2 kg/m3
872.9 kPa	989 ± 1.2 kg/m3
882.8 kPa	988.9 ± 1.2 kg/m3
890.8 kPa	988.9 ± 1.2 kg/m3
899 kPa	988.9 ± 1.2 kg/m3
907.3 kPa	989 ± 1.2 kg/m3
916.8 kPa	989 ± 1.2 kg/m3
925 kPa	988.8 ± 1.2 kg/m3
933.2 kPa	989 ± 1.2 kg/m3
